Patent US12410358B2, “Organic acid-based enhanced waterflooding” (UNIVERSITY OF WYOMING, priority 2018, dated 2025)

Columns and labels:
[1] = Emulsion stability by TD-NMR droplet-size distribution; format: physicochemical; conditions: for Δd3 day 5 / Δσ day 5 / Δd3 day 14 / Δσ day 14: 1 mM acid in 1% Na2SO4, 1:1 with GB oil; for Δd3 day 5 / Δσ day 5: change days 1-5; for Δd3 day 14 / Δσ day 14: change days 1-14; for effect on emulsion stability compared to 1% Na2SO4 brine: 1 mM acid, day 14
Description: Dispersions were prepared in a 1:1 volume ratio with GB oil to each acid (1 mM) in the 1% Na2SO4 brine. The dispersions were emulsified via […] at 6500 rpm for 30 seconds in an Ultra Turrax T25 basic (IKA-Werke) homogenizer. The emulsions were then homogenized for 3 minutes at 6500 rpm to obtain homogeneous droplets for characterization.
Water-in-oil emulsions were prepared for each acid and the time evolution was tracked on a Bruker Biospin Minispec mq20 time domain nuclear magnetic resonance (TD-NMR). This instrument provides information about the polydispersity (σ) of the system and the diameter size (di). The variable i can represent either the diameter in terms of the number of droplets (1=0) or the diameter in terms of average volume of the droplets (1=3). The unimodal droplet size distribution for the created emulsions can be calculated according to Equation 2:
[formula] where qi is the log-normal distribution, d50,i is the geometric mean diameter. Bruker software is used for the NMR and that calculated the droplet size distribution. The change in diameter in relation to the volume is useful because it is indicative of coalescence.
This technique is advantageous as it is non-invasive and independent of the opacity of the dispersion. […] Droplet coalescence and emulsion stability was inferred by tracking the droplet-size distribution density over time.
The influence of the specific acids on coalescence was evaluated with restricted diffusion in a time-domain nuclear magnetic resonance (TD-NMR) system. […] Measurements were recorded within the first hour after emulsification, and every day for days 1-5, and then on days 7, 10, and 14. The TD-NMR system calculates a median diameter, which relates to the number of droplets present (d0) and the volume of the droplets present (d3). […] The Bruker system software also provides a standard deviation, σ, which is applicable for both diameter values and relates to the polydispersity of the droplets in solution.

[2] = Interfacial shear viscoelasticity, double-wall ring rheometer; format: physicochemical; conditions: for tan (δ) / Fractional G′ / Fractional G″: 1 mM acid in 1% Na2SO4 brine, 25° C.; for tan (δ): compared to the brine; for Fractional G′ / Fractional G″: compared to the brine viscoelastic moduli
Description: Rheological experiments were conducted with the GB oil and a low-salinity brine (1% Na2SO4) spiked with low concentration of organic acids using a TA Instruments AR-G2 Rheometer with a double-wall ring geometry. Measurement of the oil-water interface was performed using the rheometer, as the ring of the rheometer was placed directly on the denser phase, with the second phase added carefully at the end. The shear viscoelasticities were recorded at 25° C. Measurements were run in oscillatory time-sweep mode to measure the shear viscoelastic moduli, as the oscillatory time-sweep mode has high sensitivity to measure low frequency and torque values.
The stress response of the oil-water interface can be calculated utilizing Equation 1: σ(t)=γo[G′(ω)sin(ωt)+G″(ω)cos(ωt)] where σ represents the shear stress, t represents the time, γo is the amplitude of the strain, G′(ω) is the elastic or real modulus, and G″(ω) is the viscous or imaginary modulus. The elastic modulus is the instantaneous response to stress and the viscous modulus is the delayed response quantified by a phase angle. The tangent of this angle is represented by the following equation: […]
Experiments were run in the linear viscoelastic region, determined with a strain sweep test at fixed frequency on individual samples to determine appropriate values for each parameter in the following experiments.
The rheometer was cleaned with toluene and methanol and then air-dried; the Pt/Ir ring of the rheometer was flamed to remove residual contaminants and salts before each experiment. The rheometer was positioned on an air-table and was calibrated for geometry, inertia, and friction before each experiment was prepared. The brine was filtered through a 0.45 μm SFCA filter and examined for bubbles before the ring was lowered to sit at the interface. Next, the oil was added on top of the brine in a manner selected to avoid disruption of the interface formed. Without moving the table, the setup was covered and allowed to run for a minimum of five days. The viscoelasticity was measured several times during the first day and then routinely once a day for the remainder of the experiment duration. The temperature was controlled with the Peltier plate beneath the sample holder. When cleaning the rheometer at the end of the experiment, care was taken to recover as much aqueous phase as possible for NMR and pH measurements.
The interfacial viscoelasticity measurements were conducted on samples having a ratio of two parts aqueous phase to one part oil phase. […]

[3] = Oil bridge neck diameter / snap-off experiment; conditions: 1 mM acid in 1% Na2SO4, GB oil bridge; for delay of snap-off / bridge failure compared to low-salinity brine: 1 hour aging
Description: A bridge technique was executed on a modified First Ten Angstroms (FTA) 1000 pendant drop instrument using two opposing vertical needles. The slenderness ratio (A) is defined as the length of the bridge (L) divided by the diameter of the needle (D). A large slenderness ratio is associated with an unstable bridge. The bridge goes through at least two processes. First the oil is bridged between the opposing needles, suspended in the brine and aged up to one hour. While the bridge is aging, the interfacial elasticity increases and the interfacial tension decreases. There are no disruptions or deformation of the system, and thus the surface stress is equal to the interfacial tension. After aging, the bridge goes under the second process during which the oil comprising the bridge is removed at 0.1 μL/s. This response is tracked until bridge failure. During this process, due to the increase in the elasticity of the interface, an extensional longitudinal and compressive circumferential surface stress contribute to the process. The behavior of the oil when the bridge breaks is indicative of the dominant environment of the oil-water interface—e.g., whether the environment is characteristic of an elastic break or an inelastic break. An enhanced elastic break, resulting from the formation of a thick interface, can appear as pointy interface and can show very little recovery of its initial shape, while a viscous break can reform the initial appearance of the oil before the formation of the bridge as shown in FIGS. 8A-8C. FIG. 8A is an image of the bridge initially before any aging or oil removal. FIG. 8B is an image showing the behavior observed in an inelastic break, and FIG. 8C is an image showing the behavior observed in an elastic break. Increased viscoelasticity suppresses interfacial snap-off and helps to sustain a more continuous oil phase. An elastic bridge is much less prone to break and therefore can pull more volumes of oil out (more production).
The behavior of the bridge is monitored with an APPRO camera at a frame rate of 60 frames per second and its geometry is tracked by measuring the neck diameter (ND). The neck diameter is the lowest radius along the vertical axis. The critical neck diameter (CND) is the value corresponding to the last frame of the connected bridge. The ratio of CND/ND is a stability proxy, and assumptions are made that a value close to zero indicates prevalent elastic forces.

[4] = Solubility of acids in brine; format: physicochemical; conditions: no pH adjustment
Description: A 1% Na2SO4 brine, equivalent to 2.24 mM (low salinity) and an ionic strength of 6.7 mM, was prepared and vacuumed for two hours before use. The brine was selected because it served as the baseline aqueous phase for the coreflooding experiments. Brine aliquots were then mixed with each of the 18 acid solutions at various concentrations and mixed into solution for several days. […] No adjustments were made to the brine to bring the acids into solution; at higher brine pH, larger naphthenic acids (NAs) solubilize more readily, while smaller ones can often dissolve at neutral pH. At higher pH, the potential for micelle and reverse micelle formation increases. However, embodiments described herein relate to acids that partition naturally, rather than those coaxed from the oil phase, so pH adjustments were not made in order to examine the influence of the acids in the system.
Additionally, the naphthenic acid mixture (NAmix1) was analyzed.

Row | Δd3 day 5 [1] | Δσ day 5 [1] | Δd3 day 14 [1] | Δσ day 14 [1] | effect on emulsion stability compared to 1% Na2SO4 brine [1] | tan (δ) ([2]; GB oil) [%] | Fractional G′ ([2]; GB oil) | Fractional G″ ([2]; GB oil) [%] | aging time after which skin was observed [3] [h] | bridge break behaviour (elastic / inelastic) [3] | delay of snap-off / bridge failure compared to low-salinity brine [3] | G′ value (elastic modulus) ([2]; 1 mM acid, day 5, GB oil) | G″ value (viscous modulus) ([2]; 1 mM acid, day 5, GB oil) | interface relative to un-acidified brine values ([2]; 10 mM acid, day 5, GB oil) [%] | concentration at which G′ and G″ plateau (acid believed to form aggregates) ([2]; GB oil, 1% Na2SO4 brine) | aging time after which solid-like film (skin) was visible [3] | Structure (SMILES) | solubility in 1% Na2SO4 brine [4]
1 | 1.045 | 0.1325 | 1.115 | 0.1722 | stabilize the emulsions | 114 | 53% | 47 |  |  |  |  |  |  |  |  | O=C(O)[C@@H]1CCCN1 [L-Proline, L-proline] | 
2 | 1.315 | 0.1998 | 1.6025 | 0.3463 | does not encourage coalescence | 189 | 25.8%^ | 48.8 |  |  |  |  |  |  |  |  | Cc1ccc(C(=O)O)cc1 [NA12, p-toluic acid] | 
3 | 1.3475 | 1.3475 | 1.4425 | 0.259 | stabilize the emulsions | 90.6 | 151% | 137 | ~12 | more elastic break | delays snap-off |  |  |  |  |  | O=C(O)C1CCCC1 [NA14, cyclopentane carboxylic acid] | 
4 | 1.5395 | 0.1263 | 1.572 | 0.2238 | stabilize the emulsions | 127 | 42% | 53.5 |  | asymmetric elastic skin | delayed bridge failure the longest | about 100 mPa | about 35 mPa | 21.2 | above 2.5 mM | about 10 minutes | O=C(O)C1CCCCC1 [NA18, cyclohexane carboxylic acid] | especially soluble at higher concentrations
